Values joined by “and” are separate entries in the source; they are usually repeats but may differ in a detail not shown here. Identical values can stand only once. Like-named read-outs stand apart in the source and are kept apart here.
Tests used:
T cruzi [1] = assay: In vivo activity against T. cruzi in BALB/c mice (blood parasites, survival); set-up: species or system Trypanosoma cruzi; settings: for # of type of field (blood parasites per fields): individual mice
T. cruzi (tulahuen CL2) = assay: microbe, parasite or virus in culture; settings: Trypanosoma cruzi, L6, read-out: T. cruzi (tulahuen CL2) IC50
Experimental: The Trypanosoma cruzi (MHOM/CL/00/Tulahuen) transfected with β-galactosidase (Lac Z) gene, was used (Buckner et al (1996) Antimicrobial Agents and Chemotherapy 40(11), 2592-2597. The strain was maintained on an L-6 (rat skeletal myoblast cell line obtained from European Collection of Animal Cell Cultures (ECACC, Salisbury, UK)) cell-layer in RPMI 1640 w/o phenol red medium supplemented with 10% heat inactivated fetal calf serum. All cultures and assays were conducted at 37° C. under an atmosphere of 5% CO2 in air.
For the assays, the compound was further diluted to the appropriate concentration using complete medium.
Assays were performed in sterile 96-well microliter plates, each well containing 100 μl medium with 2×10^3 L-6 cells. After 24 hours 50 μl of a trypanosome suspension containing 5×10^3 trypomastigote bloodstream forms from culture was added to the wells. 48 hours later the medium was removed from the wells and replaced by 100 μl fresh medium with or without a serial drug dilution. […] Nifurtimox was used as the reference drug.
The compounds were tested in triplicate at 4 concentrations (30-10-3-1 μg/ml). Nifurtimox was included as the reference drug.
The same protocol was used and the IC50s determined using an extended dose range adjusted as appropriate.

P. falciparum (Ghana) = assay: Integrated in vitro screening, P. falciparum (Ghana); type: cell-based; settings: Plasmodium falciparum; for IC50: read-out: P. falciparum (Ghana), IC50
T. b. brucei = assay: Integrated in vitro screening, T. b. brucei; type: cell-based; settings: Trypanosoma brucei, read-out: T. b. brucei, IC50
L. donovani HU3 = assay: In vivo activity against L. donovani HU3 in mice (liver parasite load, LDU); set-up: species or system Leishmania donovani; settings: for ED50: Leishmania donovani
Experimental: (§1) The infection and treatment of the animals was performed as described by Croft and Yardley and references there in (Croft & Yardley (1999) Animal models of visceral leishmaniasis. In Handbook of Animal Models of Infection, Zak, O. (ed) pp 783-787, Academic Press, London). […] The liver was removed from freshly sacrificed animals and weighed. Smears were then prepared from the livers on microscope slides and fixed with methanol and stained with Giemsa stain. The number of parasites per 500 liver cells was determined microscopically for each experimental animal. This figure is multiplied by total liver weight (mg) and this figure (the Leishman-Donovan unit (LDU)) is used as the basis for calculating the difference in parasite load between treated and untreated animals (Croft & Yardley, 1999 supra).
(§2) Stibogluconate at its MTD (15 mg/kg×5 SC) was used as the control compound for these experiments.

T. colubriformis = assay: Integrated in vitro screening, T. colubriformis; type: cell-based; settings: for IC50: Trichostrongylus colubriformis, read-out: T. colubriformis, IC50
L. infantum = assay: In vitro screening, Leishmania in mouse peritoneal macrophages; type: cell-based; settings: Peritoneal macrophage
Experimental: One strain of Leishmania spp. (Leishmania donovani MHOM/ET/67/L82, also known as LV9,HU3) was used. The strain is maintained in the Syrian Hamster (Mesocricetus auratus). Amastigotes were collected from the spleen of an infected hamster and spleen parasite burden was assessed using the Stauber technique.
Primary peritoneal mouse (CD1) macrophages were collected 1 or 2 days after a macrophage production stimulation with an i.p. injection of 2 ml 2% soluble starch. All cultures and assays were conducted at 37° C. under an atmosphere of 5% CO2.
The stock was pre-diluted to 60 μg/ml in RPMI 1640+10% heat inactivated fetal calf serum. Assays were performed in sterile 16-well tissue culture slides, each well containing 50 μl of the compound dilutions together with 100 μl of macrophage/parasite inoculum (4×10^5 macrophages/ml and 4×10^6 parasites/ml). The inoculum was prepared in RPMI-1640 medium, supplemented with 10% heat inactivated fetal calf serum. […] After 5 days of incubation, parasite growth was microscopically assessed after staining the cells with a 10% Giemsa solution. The level of infection/well was evaluated by counting the number of infected macrophages per 100 macrophages. The results expressed as % reduction in parasite burden compared to control wells, were transferred into a graphic programme (EXCEL), sigmoidal inhibitions curves determined and IC50 values calculated. […]

[2] = Cytotoxicity assays against a range of human cell lines; type: cell-based; settings: range of human cell lines (not named)
[3] = mouse, in vivo
Experimental: as §1, §2

T cruzi [4] = assay: In vivo activity against T. cruzi in BALB/c mice (blood parasites, survival); set-up: species or system Trypanosoma cruzi; settings: for # of type of field (blood parasites per fields): 0.3 mg/kg i.p. x5, individual mice
Experimental: At a dose of 0.3 mg/kg (IP×5, daily) all the mice survived for the 50 days before the experiment was terminated.

**Q.** For `O=C(Cn1ccnc1[N+](=O)[O-])NCc1ccccc1` [benznidazole], which “parasites in the blood, compared with tretazicar 3.0 mg/kg” value (T cruzi [1]; 45 mg/kg (p.o.×5 daily)) is on record?
**A.** Its value is “equivalent effect”.

**Q.** What about the “# of type of field (blood parasites per fields)” value (T cruzi [1]; 45 mg/kg p.o. x5, day 6 post infection) of the same molecule?
**A.** Its value is 0/20 and 3/20 (2×) and 4/20 and 1/20.

**Q.** And the “# of type of field (blood parasites per fields)” value (T cruzi [1]; 45 mg/kg p.o. x5, day 13 post infection)?
**A.** Its value is 0/10.

**Q.** With `CC1CS(=O)(=O)CCN1/N=C/c1ccc([N+](=O)[O-])o1` (centres unmarked) [Nifurtimox] as the molecule, how does the IC50 (T. cruzi (tulahuen CL2)) read?
**A.** Its IC50 is 450 nM.

**Q.** Which IC50 (P. falciparum (Ghana)) does the source give for `CCN(CC)CCCC(C)Nc1ccnc2cc(Cl)ccc12` (centres unmarked) [Chloroquine] here?
**A.** The IC50 was 18 nM.

**Q.** Which IC50 (T. b. brucei) does the source give for `Cc1ccc(C(=O)Nc2ccc(S(=O)(=O)O)c3cc(S(=O)(=O)O)cc(S(=O)(=O)O)c23)cc1NC(=O)c1cccc(NC(=O)Nc2cccc(C(=O)Nc3cc(C(=O)Nc4ccc(S(=O)(=O)O)c5cc(S(=O)(=O)O)cc(S(=O)(=O)O)c45)ccc3C)c2)c1` [Suramin] here?
**A.** The IC50 was 45 nM.

**Q.** With `O.O.O.O.O.O.O.O.O.O=C([O-])[C@@H]1[O][Sb]2([O-])([O][Sb]34([OH])[O][C@H]([C@H](O)CO)[C@H]([O]3)[C@H](C(=O)[O-])[O]4)[O][C@H]([C@H](O)CO)[C@@H]1[O]2.[Na+].[Na+].[Na+]` [Stibogluconate, sodium stibogluconate] as the molecule, how does the “effect on parasite counts” value (L. donovani HU3; SCID mouse model, MTD 15 mg/kg×5 SC) read?
**A.** Its value is “little effect”.

**Q.** With `CCCSc1ccc2nc(NC(=O)OC)[nH]c2c1` [Albendazole] as the molecule, how does the IC50 (T. colubriformis) read?
**A.** The IC50 was 2 nM.

**Q.** For `NC(=O)c1cc(N2CC2)c([N+](=O)[O-])cc1[N+](=O)[O-]` [Tretazicar, 5-(aziridin-1-yl)-2,4-dinitrobenzamide], which IC50 (L. infantum) is on record?
**A.** The IC50 was 80 nM.

**Q.** What about the IC50 (T. b. brucei; in vitro) of the same molecule?
**A.** The IC50 was 5000 nM.

**Q.** What about the “activity against tested strains” value (T. colubriformis; T. colubriformis, in words) of the same molecule?
**A.** Its value is “No activity”.

**Q.** What about the IC50 (T. colubriformis; in vitro) of the same molecule?
**A.** Its IC50 is greater than 32000 nM.

**Q.** And the “activity against tested strains” value (P. falciparum (Ghana); in words)?
**A.** Its value is “No activity”.

**Q.** What about the IC50 (P. falciparum (Ghana); in vitro) of the same molecule?
**A.** Its IC50 is greater than 32000 nM.

**Q.** What about the IC50 [2] of the same molecule?
**A.** Its IC50 is greater than 50000 nM.

**Q.** What about the ED90 (L. donovani HU3; BALB/c mice, IP × 5 Daily) of the same molecule?
**A.** Its ED90 is 1.41 mg/kg.

**Q.** What about the ED90 (L. donovani HU3; BALB/c mice, IV × 3 Daily) of the same molecule?
**A.** Its ED90 is 1.15 mg/kg.

**Q.** And the ED50 (L. donovani HU3; ip, BALB/c mice, IP × 5 Daily)?
**A.** The ED50 was 0.23 mg/kg.

**Q.** What about the ED50 (L. donovani HU3; iv, BALB/c mice, IV × 3 Daily) of the same molecule?
**A.** The ED50 was 0.19 mg/kg.

**Q.** And the ED50 (L. donovani HU3; iv, SCID mice, IV × 5 Daily)?
**A.** Its ED50 is 0.18 mg/kg.

**Q.** What about the ED90 (L. donovani HU3; SCID mice, IV × 5 Daily) of the same molecule?
**A.** Its ED90 is 0.35 mg/kg.

**Q.** And the “drug related toxicity, as measured by body weight loss” value [3]?
**A.** The value was “No drug related toxicity”.

**Q.** What about the “dose at which significant toxicity was observed” value ([3]; 5 days) of the same molecule?
**A.** The value was 10 mg/kg×5.

**Q.** And the “survival of infected mice” value (T cruzi [4]; 0.3 mg/kg (IP×5, daily), BALB/c mice, experiment terminated at 50 days)?
**A.** Its value is no less than 50 days.

**Q.** And the “parasites in the blood” value (T cruzi [4]; 0.3 mg/kg (IP×5, daily), at 13 days)?
**A.** The value was “parasites could still be detected in the blood”.

**Q.** What about the “# of type of field (blood parasites per fields)” value (T cruzi [4]; day 6 post infection) of the same molecule?
**A.** The value was 2/20 and 0/20 (4×).

**Q.** What about the “# of type of field (blood parasites per fields)” value (T cruzi [4]; day 13 post infection) of the same molecule?
**A.** The value was 16/5 and 2/5 (2×) and 7/5 and 6/5.

**Q.** What about the “# of type of field (blood parasites per fields)” value (T cruzi [1]; 1 mg/kg i.p. x5, day 6 post infection) of the same molecule?
**A.** Its value is 0/20 (3×) and 1/20 (2×).

**Q.** What about the “# of type of field (blood parasites per fields)” value (T cruzi [1]; 1 mg/kg i.p. x5, day 13 post infection) of the same molecule?
**A.** Its value is 0/10 (2×) and 3/10.

**Q.** What about the “parasites in the blood” value (T cruzi [1]; 3.0 mg/kg (IP×5, daily)) of the same molecule?
**A.** Its value is “cleared all the parasites from the blood”.

**Q.** And the “# of type of field (blood parasites per fields)” value (T cruzi [1]; 3 mg/kg i.p. x5, day 6 post infection)?
**A.** Its value is 5/20 and 12/20 and 4/20 and 1/20 (2×).

**Q.** What about the “# of type of field (blood parasites per fields)” value (T cruzi [1]; 3 mg/kg i.p. x5, day 13 post infection) of the same molecule?
**A.** The value was 0/10.

**Q.** What about the “# of type of field (blood parasites per fields)” value (T cruzi [1]; 10 mg/kg i.p. x5, day 6 post infection) of the same molecule?
**A.** The value was 0/20 (3×) and 1/20 and 2/20.

**Q.** What about the “# of type of field (blood parasites per fields)” value (T cruzi [1]; 10 mg/kg i.p. x5, day 13 post infection) of the same molecule?
**A.** The value was 0/10.

**Q.** What about the IC50 (T. cruzi (tulahuen CL2)) of the same molecule?
**A.** Its IC50 is 3 nM.

— US8415334B2, “Method of combating infection” (Morvus Technology Ltd., priority 2005, dated 2013)
